Measurements taken from PMC6567057, “Pharmacokinetic, metabolic stability, plasma protein binding and CYP450s inhibition/induction assessment studies of N-(2-pyridylmethyl)-2-hydroxiymethyl-1-pyrrolidinyl-4-(3-chloro-4-methoxy-benzylamino)-5-pyrimidine-carboxamide as potential type 5 phosphodiesterase inhibitors” (Animal Cells and Systems, 2019).

Assays:
[1] = system: rat plasma proteins; experiment: Plasma protein binding by equilibrium dialysis (rat); format: in vitro ADME, Sprague–Dawley rat; settings: rat plasma, equilibrium dialysis, n = 3
Procedure: (§1) The phosphate buffer (100 mM) and sodium hydroxide solution (1.0 M) were prepared in deionized water. […] PPB was determined by equilibrium dialysis method. An aliquot (150 μL) of NHPPC spiked plasma and phosphate buffer (pH 7.4) was added into the donor side and the receiver side of each designated well. The plate was covered with adhesive sealing film to prevent evaporation and placed in a water-bath shaker kept at 37°C for 6 h with a rate of 50 rpm. […] At the end of 6 h, aliquots were taken from each side of each well (n = 3) and kept in a −20°C freezer prior to analysis. The stability, device recovery and PPB were calculated using the following equations: Remaining at 6 h (%)=C6h/C0h×100%, Device recovery (%)=CDonor+CReceiver/C6h×100%, PPB (%)=CDonor−CReceiver/CDonor×100%.

[2] = system: dog plasma proteins; experiment: Plasma protein binding by equilibrium dialysis (dog); format: in vitro ADME, Beagle dog; settings: dog plasma, equilibrium dialysis, n = 3
Procedure: as §1

[3] = system: human plasma proteins; experiment: Plasma protein binding by equilibrium dialysis (human); format: in vitro ADME; settings: human plasma, equilibrium dialysis, n = 3
Procedure: as §1

In the case of `CC(=O)CC(c1ccccc1)c1c(O)c2ccccc2oc1=O` (stereo not drawn) [Warf, reference compound], the “Mean device recovery %” value [1] is reported as 107.9 ± 0.03%, the “Mean device recovery %” value [2] is reported as 100.7 ± 0.49% and the “Mean device recovery %” value [3] is reported as 107.0 ± 0.25%.
